Patent US9895302B2, “Finasteride polymeric nanoparticle, aqueous suspension containing the same, composition for the treatment of alopecia, process of preparation of said composition, and its use” (Biolab Sanus Farmaceutica Ltda., priority 2012, dated 2018)
Values after ≈ are worked out from the molar mass of the structure shown.

Assays:
men aged 18 to 41 years = conditions: 1 mg daily, at the end of five years; cited from earlier work
[1] = Solubility of finasteride in Unistab S-69 (dosing by HPLC); type: physicochemical; conditions: Unistab S-69 (commercial mixture of farnesol and linalool), oil or lipid
Method: The second embodiment of the invention is to increase the encapsulation of finasteride by the addition of a new oil in the formulation's lipid core composition in which the solubility is greater than in caprylic and capric triglycerides. To this end, Unistab® S-69, a commercial mixture, was preferentially employed and consists of farnesol and linalool, in which the solubility of finasteride is about 90 mg/mL (dosing done by HPLC). Farnesol is a sesquiterpene alcohol and linalool is a terpenic alcohol, both found in various essential oils and insoluble in water but miscible with oils and other organic solvents such as acetone and ethanol. For being volatile, Unistab® S-69 was mixed with triglycerides in a ratio of 2.3: 1 (v/v) (Unistab® S-69: triglycerides). However, this proportion, considering the saturation of finasteride in Unistab® S-69, could be employed in the preparation of a formulation with a drug concentration of 2.0 mg/ml, due to the volatility of Unistab® S-69 and to the consequent loss of oil due to the draw caused by steam during the process of solvent evaporation under reduced pressure, a formulation was prepared with a finasteride concentration of 0.5 mg/ml, in order to ensure the nanometric features of the system. This formulation comprising a new lipid core represents the second embodiment of the invention.

What does the source list for `CC(C)(C)NC(=O)[C@H]1CC[C@H]2[C@@H]3CC[C@H]4NC(=O)C=C[C@]4(C)[C@H]3CC[C@]12C` [finasteride]?
Patients who developed baldness (men aged 18 to 41 years): 10%; solubility [1]: ~90 mg/mL (≈ 242 mM)
